Key:
[1] = tested on: MSCs; assay: Priming of MSCs to a stem cell phenotype (Protocols D and E); format: cell-based; settings: for priming of MSCs: incubation for 1-6 days (Protocol E)
Protocol: These incubations were also performed after first transfecting the MSCs with the modified Nanog mRNA.

[2] = tested on: MyoD; assay: Myogenic priming of MSCs, MyoD-GFP reporter; format: cell-based, human; settings: Nanog mRNA transfection prior to co-culture (Protocol B); one day incubation with 5-AZA (Protocol C)
Text: In light of the ability of MSCs to induce muscle regeneration, reduce muscle fibrosis and increase engraftment via paracrine effects, a method of supplementing the therapeutic effect of MSCs was developed. This method, called “myogenic priming”, increased the cell's paracrine effects on muscle cells on the one hand and promoted the MSC's own differentiation to muscle cells on the other. This priming increased the ability of MSCs to differentiate into satellite cells that undergo asymmetric division and to myoblasts that fuse with existing muscle fibers and deliver dystrophin to the cells. It was hypothesized that inducing MyoD expression in the cells would be one method of priming. This was tested by culturing CH- and UC-MSCs containing a MyoD-GFP reporter, in trans-well plates with human muscle cells (Protocol A). In this way, the extracellular vesicles and secreted factors from the muscle cells were able to contact the MSCs. A 3-day incubation resulting in a greater than 2-fold increase in MyoD expression as compared to control cells that had not be exposed to muscle cells (FIG. 3).
In addition to co-cultures with muscle cells, various methods were employed that would induced transient stem cell characteristics in MSCs to increase their muscle differentiation abilities in response to subsequent factors. […]

[3] = tested on: MSCs; assay: Protocol 3 differentiation of MSCs to hybrid cells with growth factors; format: cell-based; settings: individually and in combination, as replacements or in combination with HGF and PDGF
Protocol: A shortened third protocol (Protocol 3) was examined and was also found to produce MSC-muscle cell hybrid cells. The MSCs were cultured in normal MSC culturing conditions followed by supplementation of the media for 24 hours with 5-AZA. The cells were than grown in media supplemented with 2% horse serum and HGF and PDGF for 2 weeks. […] The following growth factors were tested both individually and in combination as replacements or in combination with HGF and PDGF: EGF, IGF1, PDGFAA, PDGFBB, and VEGF. […] Additionally, the protocol could be halted by moving the treated MSCs to non-supplemented MSC media. Hybrid cells that were produced could thus be halted from further differentiation.
All three protocols were also performed with MSCs that had first undergone myogenic priming as described above.

Compound | priming of MSCs [1] | further results
Cc1cccc(-c2nn(C(=S)Nc3ccccc3)cc2-c2ccnc3ccccc23)n1 [A83-01] | primed the MSCs to a degree | –
Nc1ncn([C@@H]2O[C@H](CO)[C@@H](O)[C@H]2O)c(=O)n1 [5-azacytidine] | – | myoD expression [2]: increased
C[C@@H](N)[C@H]1CC[C@H](C(=O)Nc2ccncc2)CC1 [Y-27632] | – | primed stem cell phenotype in MSCs ([1]; 24 hours, followed by media with a pH of about 6 for 1 hour or hypoxia for 24 hours (Protocol D)): induced a primed stem cell phenotype
N[C@@H]1C[C@H]1c1ccccc1 (racemic) [tranylcypromine] | primed the MSCs to a degree | –
O=C(NCc1ccccc1)c1csc(Nc2ccncn2)n1 [Thiazovivin] | primed the MSCs to a degree | –
O=c1c(O)c(-c2ccc(O)c(O)c2)oc2cc(O)ccc12 [fistein] | primed the MSCs to a degree | –
CCCC(CCC)C(=O)O [valporic acid] | primed the MSCs to a degree | –
Oc1ccc(C=Cc2cc(O)cc(O)c2)cc1 [resveratrol] | primed the MSCs to a degree | –
[Cl-].[Li+] [LiCl] | primed the MSCs to a degree | –
PDGFAA: growth factor | – | production of hybrid cells from MSCs [3]: found to produce hybrid cells
Cc1c[nH]c(-c2cnc(NCCNc3ccc(C#N)cn3)nc2-c2ccc(Cl)cc2Cl)n1 [CHIR99021] | primed the MSCs to a degree | –
CC(C)n1nc(-c2cc3cc(O)ccc3[nH]2)c2c(N)ncnc21 [PP242] | primed the MSCs to a degree | –
IGF1: growth factor | – | production of hybrid cells from MSCs [3]: found to produce hybrid cells
CN(C)C(=N)N=C(N)N [metformin] | primed the MSCs to a degree | –
VEGF | – | production of hybrid cells from MSCs [3]: found to produce hybrid cells
Cc1cccc(-c2[nH]ncc2-c2ccc3ncccc3n2)n1 [RepSox] | primed the MSCs to a degree | –
NC(=O)c1ccc(-c2nc(-c3ccc4c(c3)OCO4)c(-c3ccccn3)[nH]2)cc1 [SB431542] | primed the MSCs to a degree | –
Nc1nccc2c1ncn2[C@@H]1C=C(CO)[C@@H](O)[C@H]1O [3-deazaneplanocin A] | primed the MSCs to a degree | –

Source: patent US10973857B2, “Mesenchymal stem cell and use thereof for treatment of muscle injury and muscle-associated diseases” (EXOSTEM BIOTEC LTD., priority 2016, dated 2021)
